Experimental data taken from publication PMC10144242, “Design, Synthesis, In Vitro, and In Silico Insights of 5-(Substituted benzylidene)-2-phenylthiazol-4(5H)-one Derivatives: A Novel Class of Anti-Melanogenic Compounds” (Molecules, 2023).

Tests used:
B16F10 cells = experiment: Cell viability / cytotoxicity, EZ-Cytox assay; assay type: cell-based, murine
Procedure: Before investigating their inhibitory effects on B16F10 cells, the viability of (Z)-BPT derivatives 1–3 was examined in B16F10 cells.
To determine the cell viability, six different concentrations (0, 1, 2, 5, 10, and 20 µM) of (Z)-BPT derivatives 1–3 were used, and the results were examined at two time points (48 and 72 h). […] Based on the cell viability results, the concentrations for cell-based assays related to the melanin production level and cellular tyrosinase activity were determined.
Cytotoxicity studies of (Z)-BPT derivatives 1–3 were performed on B16F10 melanoma cells using the previously established EZ-Cytox (EZ-3000, DoGenBio, Seoul, Republic of Korea) test, and cytotoxicity studies of (Z)-BPT derivatives 1–3 were conducted on B16F10 melanoma cells. Briefly, B16F10 cells were seeded in a 96-well plate at a density of 1 × 10^4 cells/well and cultivated at 37 °C for 24 h in a humid environment with 5% CO2. […] The cells were then incubated at 37 °C for 2 h after 10 µL of the EZ-Cytox solution had been added to each well. To determine the cell viability, the absorbance of each well was measured at 450 nm using a microplate reader (VersaMax^TM, Molecular Devices, Sunnyvale, CA, USA). Each assay was performed in triplicates.
Figure 6 Effects of (Z)-BPT derivatives 1–3 on cell viability in B16F10 cells. Cytotoxic effects were measured using an EZ-Cytox assay at six different concentrations (0, 1, 2, 5, 10, and 20 µM) of 1–3. (A) Derivative 1; (B) Derivative 2; (C) Derivative 3. *** p < 0.001 for non-treated cells vs. cells treated with 3.

[1] = DPPH radical scavenging assay; details: 1 mM, 30 min in the dark
Procedure: The 2,2-diphenyl-1-picrylhydrazyl (DPPH) radical scavenging capacity of the (Z)-BPT derivatives (1 mM) was investigated using L-ascorbic acid (1 mM, vitamin C) as a positive control. […] L-Ascorbic acid scavenged 97.1% of the DPPH radical, whereas (Z)-BPT derivative 1 with a 4-hydroxyl substituent on the β-phenyl ring scavenged 46.5% of the DPPH radical.
The antioxidant properties of (Z)-BPT derivatives 1–14 against DPPH (2,2-diphenyl-1-picrylhydrazyl) radicals were examined using a DPPH radical scavenging assay, as previously described with minor modifications. DPPH solution (180 µL, 0.2 mM) in methanol was mixed with a (Z)-BPT derivative solution (1–14, 20 µL, 10 mM) in dimethyl sulfoxide in each well of a 96-well plate, and the mixture was kept for 30 min in the dark at room temperature. The absorbance at 517 nm was measured using a VersaMax ™ microplate reader (Molecular Devices, Sunnyvale, CA, USA). The capacity of the derivatives to scavenge DPPH radicals was compared with that of L-ascorbic acid, which was used as the positive control. Each experiment was run independently in triplicates.
Figure 10 The radical scavenging effect of (Z)-BPT derivatives on DPPH. The DPPH radical scavenging activities of test samples (1 mM) were assayed after being left in the dark for 30 min. Distilled water and dimethyl sulfoxide (DMSO) were utilized as the solvents for the positive control L-ascorbic acid and the (Z)-BPT derivatives, respectively. Asterisks (***) represent a significant difference between L-ascorbic acid and the (Z)-BPT derivatives, and results are expressed as the mean ± standard error of three different experiments. *** p < 0.001.

mushroom tyrosinase [2] = biological target: T1, mushroom tyrosinase (Agaricus bisporus, UniProt C7FF04); experiment: Kinetic studies on mushroom tyrosinase inhibition (Lineweaver–Burk and Dixon plots, L-DOPA substrate); assay type: biochemical; set-up: purchased Sigma-Aldrich
Procedure: As depicted in Figure 2, the mechanisms of tyrosinase inhibition were analyzed using Lineweaver–Burk plots. […] Each of the four straight lines produced at each inhibitor concentration converged to a single point on the y-axis. […] In contrast, in derivative 3, four straight lines generated at each inhibitor concentration intersected at a point in the second quadrant. According to the Lineweaver–Burk plot, as the inhibitor concentration increased, the Vmax value of 3 decreased, but the KM value increased.
To determine the Ki (inhibition constant) values of (Z)-BPT derivatives 1–3, Lineweaver–Burk plots for 1–3 were transformed into the corresponding Dixon plots (Figure 3). Each Dixon plot obtained from each Lineweaver–Burk plot produced four straight lines that intersected at one point in the second quadrant. The vertical lines from the merge point to the x-axis provide the Ki value of each (Z)-BPT derivative.
To determine the mode of action, Lineweaver–Burk plots of (Z)-BPT derivatives 1–3 were acquired. In brief, 10 µL of (Z)-BPT derivatives 1–3 (final concentrations:0, 3, 6, or 12 µM for 1; 0, 0.05, 0.1, or 0.2 µM for 2; 0, 2.5, 5, or 10 µM for 3) was added to a 96-well plate containing a substrate mixture (170 µL) consisting of an aqueous solution of L-dopa at final concentrations of 0.5, 1.0, 2.0, or 4.0 mM and 14.7 mM potassium phosphate buffer (pH 6.5), and a mushroom tyrosinase aqueous solution (20 µL, 20 units). Using a microplate reader (VersaMax^TM, Molecular Devices, Sunnyvale, CA, USA) to measure the increase in absorbance at a wavelength of 492 nm (ΔOD492/min), the initial rate of dopachrome synthesis in the reaction mixture was estimated. Using five different concentrations of L-dopa, Lineweaver–Burk plots (inverse of the response rate (1/V) vs. inverse of L-dopa concentration (1/(S)) were created. The convergence points of the four plot lines were used to define the mode of action of tyrosinase inhibition.
Figure 2 Lineweaver–Burk plots for the inhibition of mushroom tyrosinase activity by (Z)-BPT derivatives 1–3. […] Three independent experiments with five different concentrations (0.5, 1, 2, 4, and 8 mM) of an L-DOPA substrate were used to measure the augmented dopachrome optical density per minute at 492 nm. The data are shown as mean values of 1/V (an inverse of that optical density per minute). The (Z)-BPT derivatives were used at concentrations of 0 (filled circles), 3 (unfilled circles), 6 (filled triangles), and 12 µM (unfilled triangles) for 1; 0 (filled circles), 0.05 (unfilled circles), 0.1 (filled triangles), and 0.2 µM (unfilled triangles) for 2; and 0 (filled circles), 2.5 (unfilled circles), 5 (filled triangles), and 10 µM (unfilled triangles) for 3. Each experiment was run independently in triplicates.
Figure 3 Dixon plots for the inhibition of mushroom tyrosinase activity by (Z)-BPT derivatives 1–3. The Ki values of (Z)-BPT derivatives 1–3 were obtained from the absolute values of the x-coordinate where four straight lines converged at one point. Three independent experiments with four different concentrations of (Z)-BPT derivatives were conducted to measure the augmented dopachrome optical density per minute at 492 nm. The data are shown as the mean values of 1/V (an inverse of that optical density per minute). The (Z)-BPT derivatives were used at concentrations of 0, 3, 6, and 12 µM for 1; 0, 0.05, 0.1, and 0.2 µM for 2; and 0, 2.5, 5, and 10 µM for 3. The experiments were performed at four different concentrations (0.5, 1, 2, and 4 mM) of L-DOPA. Each experiment was run independently in triplicates.
Target sequence in this assay (C7FF04 1-392 limits assumed): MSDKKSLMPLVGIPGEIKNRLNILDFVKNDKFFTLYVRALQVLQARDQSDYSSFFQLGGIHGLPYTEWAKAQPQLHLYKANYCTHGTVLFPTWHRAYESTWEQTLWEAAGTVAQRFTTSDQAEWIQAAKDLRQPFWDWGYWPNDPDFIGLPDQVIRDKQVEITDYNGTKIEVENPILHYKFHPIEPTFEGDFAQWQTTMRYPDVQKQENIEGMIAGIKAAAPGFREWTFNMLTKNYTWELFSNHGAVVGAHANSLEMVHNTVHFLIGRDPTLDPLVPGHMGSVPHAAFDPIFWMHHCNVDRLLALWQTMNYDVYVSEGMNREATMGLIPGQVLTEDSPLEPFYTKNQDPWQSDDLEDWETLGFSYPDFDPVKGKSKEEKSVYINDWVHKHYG

mushroom tyrosinase [3] = biological target: T1, mushroom tyrosinase; experiment: Inhibition assay against mushroom tyrosinase (L-tyrosine substrate); assay type: biochemical
Target sequence in this assay (C7FF04 1-392): as the sequence (C7FF04 1-392 limits assumed) above
Procedure: Therefore, the inhibitory effect of 14 synthetic (Z)-BPT derivatives on mushroom tyrosinase was investigated according to a previously described procedure [39].
Tyrosinase inhibition experiments were performed independently in triplicates. […] The IC50 values are presented as the mean ± standard error of the mean (SEM).
Minor modifications were made to the previous description of the inhibitory activity of mushroom tyrosinase [39]. […] After 30 min incubation at 37 °C, the amount of dopachrome produced in the assay mixture was measured at 492 nm using a microplate reader (VersaMax^TM, Molecular Devices, Sunnyvale, CA, USA) for determining the remaining tyrosinase activity. To obtain the IC50 values for each test sample, dose-dependent inhibition studies were performed in triplicates using three to five different concentrations of each test sample.

Row | Structure (SMILES) | DPPH radical scavenging activity [1] | other results
1 | O=C1N=C(c2ccccc2)S/C1=C\c1ccc(O)c(O)c1 [Compound 3, (Z)-5-(3,4-Dihydroxybenzylidene)-2-phenylthiazol-4(5H)-one] | 96.2% | concentrations showing cytotoxic effects (B16F10 cells; at 72 h (first statement of the sentence)): ≥ 5 µM; concentrations showing cytotoxic effects (B16F10 cells; at 72 h (second statement of the sentence)): ≥ 2 µM; Ki (mushroom tyrosinase [2]; Dixon plots, read-out: Ki (inhibition constant)): 4.8 µM; Inhibition type (mushroom tyrosinase [2]; Lineweaver–Burk plot): mixed-type inhibitor
2 | COc1cc(/C=C2\SC(c3ccccc3)=NC2=O)ccc1O [Compound 4, (Z)-5-(4-Hydroxy-3-methoxybenzylidene)-2-phenylthiazol-4(5H)-one] | 81.0% | 
3 | CCOc1cc(/C=C2\SC(c3ccccc3)=NC2=O)ccc1O [Compound 5, (Z)-5-(3-Ethoxy-4-hydroxybenzylidene)-2-phenylthiazol-4(5H)-one] | 58.0% | 
4 | COc1ccc(/C=C2\SC(c3ccccc3)=NC2=O)cc1O [Compound 6, (Z)-5-(3-Hydroxy-4-methoxybenzylidene)-2-phenylthiazol-4(5H)-one] | 25.1% | 
5 | O=C1N=C(c2ccccc2)S/C1=C\c1ccccc1O [Compound 7, (Z)-5-(2-Hydroxybenzylidene)-2-phenylthiazol-4(5H)-one] |  | mushroom tyrosinase inhibitory activity (in words) (mushroom tyrosinase [3]): did not exhibit mushroom tyrosinase inhibitory activity
6 | COc1cc(/C=C2\SC(c3ccccc3)=NC2=O)cc(OC)c1O [Compound 12, (Z)-5-(4-Hydroxy-3,5-dimethoxybenzylidene)-2-phenylthiazol-4(5H)-one] | moderate to strong DPPH radical scavenging activity | 
7 | O=C1N=C(c2ccccc2)S/C1=C\c1ccc(O)c(Br)c1 [Compound 13, (Z)-5-(3-Bromo-4-hydroxybenzylidene)-2-phenylthiazol-4(5H)-one] | 14.8% | 
8 | O=C1N=C(c2ccccc2)S/C1=C\c1cc(Br)c(O)c(Br)c1 [Compound 14, (Z)-5-(3,5-Dibromo-4-hydroxybenzylidene)-2-phenylthiazol-4(5H)-one] | 57.3% | 
9 | O=C1O[C@H]([C@@H](O)CO)C(O)=C1O [L-Ascorbic acid, L-ascorbic acid, reference compound] | 97.1% | 
